Source: US20030229087A1 (priority 2002, published 2003)

How the values were obtained:
Type in all cases: in vivo
[1] = test system: Erysiphe graminis f.sp. tritici; assay: Erysiphe test (wheat)/protective; settings: protective, application rate 6.25 g/ha, evaluation 7 days after inoculation
Protocol: Erysiphe Test (Wheat)/Protective
(§1) To produce a suitable preparation of active compound, 1 part by weight of active compound or active compound combination is mixed with the stated amounts of solvent and emulsifier, and the concentrate is diluted with water to the desired concentration.
(§2) To test for protective activity, young plants are sprayed with the preparation of active compound at the stated application rate.
After the spray coating has dried on, the plants are dusted with spores of Erysiphe graminis f.sp. tritici.
(§3) The plants are placed in a greenhouse at a temperature of approximately 20° C. and a relative atmospheric humidity of approximately 80% to promote the development of mildew postules.
(§4) Evaluation is carried out 7 days after the inoculation. 0% means an efficacy which corresponds to that of the control, whereas an efficacy of 100% means that no infection is observed.

Pyrenophora teres = Pyrenophora teres test (barley)/protective; settings: protective, application rate 25 g/ha, evaluation 7 days after inoculation
Protocol: Pyrenophora teres Test (Barley)/Protective
as §1
(§5) To test for protective activity, young plants are sprayed with the preparation of active compound at the stated application rate. After the spray coating has dried on, the plants are sprayed with a conidia suspension of Pyrenophora teres. The plants remain in an incubation cabin at 20° C. and 100% relative atmospheric humidity for 48 hours.
The plants are then placed in a greenhouse at a temperature of approximately 20° C. and a relative atmospheric humidity of approximately 80%.
as §4

[2] = test system: Erysiphe graminis f.sp. hordei; assay: Erysiphe test (barley)/protective; settings: Blumeria graminis, 168 h, protective, application rate 12.5 g/ha, evaluation 7 days after inoculation, read-out: Efficacy in %
Protocol: Erysiphe Test (Barley)/Protective
as §1, §2
After the spray coating has dried on, the plants are dusted with spores of Erysiphe graminis f.sp. hordei.
as §3, §4

Leptosphaeria nodorum = Leptosphaeria nodorum test (wheat)/protective; settings: protective, application rate 25 g/ha, evaluation 10 days after inoculation
Protocol: Leptosphaeria nodorum Test (Wheat)/Protective
To produce a suitable preparation of active compound, 1 part by weight of active compound or active compound combination is mixed with the stated amounts of solvents and emulsifier, and the concentrate is diluted with water to the desired concentration.
as §5, with “spore” for “conidia”, “Leptosphaeria nodorum.” for “Pyrenophora teres.”
The plants are placed in a greenhouse at a temperature of approximately 15° C. and a relative atmospheric humidity of 80%.
Evaluation is carried out 10 days after the inoculation. 0% means an efficacy which corresponds to that of the control, whereas an efficacy of 100% means that no infection is observed.

Phytophthora infestans = assay: whole plant or invertebrate; settings: Phytophthora infestans, in Solanum lycopersicum, 72 h, read-out: % Efficacy
Sphaerotheca fuliginea = assay: whole plant or invertebrate; settings: Podosphaera fuliginea, in Cucumis sativus, 240 h, read-out: % Efficacy

SMILES	Efficacy in % [1] [%]	Efficacy in % (Pyrenophora teres) [%]	pest or weed control at 12.5 g/ha [2] [%]	Efficacy in % (Leptosphaeria nodorum) [%]	pest or weed control at 0.5 g/ha (Phytophthora infestans) [%]	pest or weed control at 1 g/ha (Phytophthora infestans) [%]	pest or weed control at 2 g/ha (Phytophthora infestans) [%]	pest or weed control at 0.5 g/ha (Sphaerotheca fuliginea) [%]	pest or weed control at 1 g/ha (Sphaerotheca fuliginea) [%]
Fc1ccc(C2(Cn3cncn3)OC2c2ccccc2Cl)cc1 (centres unmarked) [epoxiconazole (XI) (10), epoxiconazole]	70	60							
CNC(=O)/C(=N/OC)c1ccccc1Oc1ncnc(Oc2cccc(Cl)c2C)c1F [Compound of the formula (I), (2E/Z)-2-(2-{[6-(3-chloro-2-methylphenoxy)-5-fluoro-4-pyrimidinyl]oxy}phenyl)-2-(methoxyimino)-N-methylethanamide]	0	60	80	60	32	60	72	30	69
